Here are results for 68 sequences from the supplement of paper PMC11208160.

The nature of this series: recombinant UMI read abundance after kanamycin selection (control-corrected) (log10(CPM+1)); higher = more efficient recombination; extreme values may be limits of the assay; sequences stand for … in AGTGCAGAGAAAATCGGCCAGTTTTCTCTGCCTGCAGTCCGCATGCCGTGGGACCCCTTGGGTTCTAACCTGTTGCCTAGATTTATGCAGCGGACTGCCTTTCTCCCAAAGTGATAAACCGG…AGGTTGGTTTCACT; site = the 11-nt donor. In outline:
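In Escherichia coli, a pool of donor and donor-binding-loop pairs, each with a 12-nt UMI, was tested for the IS621 bridge recombinase. Plating was on IPTG (0.07 mM) plus kanamycin, or without selection, in two replicates. Recombinant UMIs were amplified by PCR across the donor–target junction and sequenced, and counts were reported as log10(CPM+1) after averaging and control-derived scaling.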
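Also: IS621 bridge recombinase in Escherichia coli cells against a fixed T5 target plasmid.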

As to “CAGGAACCATGGACCGGTTTTCCCGGTAATCCGTATTTGAT (site CGGGAACCTAT)”, the “recombinant UMI read abundance (log10)” value was 0.
Regarding “CAGGAACCATGGACCGGTTTTCCCGGTAATCCGTATTTGAT (site CTGGAACCTAT)”, the “recombinant UMI read abundance (log10)” value was 0.
The value for “CAGGACTCATGGACCGGTTTTCCCGGTAATCCGTATTTGTC (site CAGGACTCTGA)” was 3.38; that for “CAGGGGTCATGGACCGGTTTTCCCGGTAATCCGTATTTGTA (site CAGGGGTCTTA)” was 3.37; that for “CAGTAACCATGGACCGGTTTTCCCGGTAATCCGTATTTGAA (site CAGTAACCTTT)” was 0.255.
Next, “CAGTAACCATGGACCGGTTTTCCCGGTAATCCGTATTTGGA (site CAGTAACCTTC)”: 0.00404.
“CAGTACACATGGACCGGTTTTCCCGGTAATCCGTATTTGAC (site CAGTACACTGT)”: the “recombinant UMI read abundance (log10)” value came to 3.63.
Next, “CAGTAGACATGGACCGGTTTTCCCGGTAATCCGTATTTGTC (site CAGTAGACTGA)”: 2.13; “CAGTAGGCATGGACCGGTTTTCCCGGTAATCCGTATTTGCA (site CAGTAGGCTTG)”: 2.82.
The value for “CAGTCACCATGGACCGGTTTTCCCGGTAATCCGTATTTGTA (site CAGTCACCTTA)” was 0.0069; that for “CAGTCCTCATGGACCGGTTTTCCCGGTAATCCGTATTTGAA (site CAGTCCTCTTT)” was 1.96; that for “CAGTCGACATGGACCGGTTTTCCCGGTAATCCGTATTTGAG (site CAGTCGACTCA)” was 0.00421.
The value for “CAGTCGACATGGACCGGTTTTCCCGGTAATCCGTATTTGAG (site CAGTCGACTCC)” was 0.0115; that for “CAGTCGACATGGACCGGTTTTCCCGGTAATCCGTATTTGAG (site CAGTCGACTCG)” was 0.00367.
Consider “CAGTCGACATGGACCGGTTTTCCCGGTAATCCGTATTTGAG (site CAGTCGACTCT)”, for which the “recombinant UMI read abundance (log10)” value stood at 0.855.
The value for “CAGTCGGCATGGACCGGTTTTCCCGGTAATCCGTATTTGGG (site CAGTCGACTCC)” was 0.027.
With “CAGTCGGCATGGACCGGTTTTCCCGGTAATCCGTATTTGGG (site CAGTCGCCTCC)”, the “recombinant UMI read abundance (log10)” value was 0.0091.
Next, “CAGTCGGCATGGACCGGTTTTCCCGGTAATCCGTATTTGGG (site CAGTCGGCTCC)”: 0.157; “CAGTCGGCATGGACCGGTTTTCCCGGTAATCCGTATTTGGG (site CAGTCGTCTCC)”: 0.0153.
“CAGTCGGCATGGACCGGTTTTCCCGGTAATCCGTATTTGGT (site CAGTCGGCTAC)”: the “recombinant UMI read abundance (log10)” value is 0.814.
The value for “CAGTGTACATGGACCGGTTTTCCCGGTAATCCGTATTTGCA (site CAGTGTACTTG)” was 2.48; that for “CAGTTACCATGGACCGGTTTTCCCGGTAATCCGTATTTGCC (site CAGTTACCTGG)” was 0; that for “CAGTTCTCATGGACCGGTTTTCCCGGTAATCCGTATTTGGC (site CAGTTCTCTGC)” was 3.27.
In the case of “CAGTTGCCATGGACCGGTTTTCCCGGTAATCCGTATTTGGT (site CAGTTGCCTAC)”, the “recombinant UMI read abundance (log10)” value was 0.0159.
As to “CAGTTGTCATGGACCGGTTTTCCCGGTAATCCGTATTTGCG (site CAGTTGTCTCG)”, the “recombinant UMI read abundance (log10)” value came out at 3.14.
Next, “CATAACCCATGGACCGGTTTTCCCGGTAATCCGTATTTGAT (site CATAACCCTAT)”: 1.19; “CATAATCCATGGACCGGTTTTCCCGGTAATCCGTATTTGTT (site CATAATCCTAA)”: 0.529.
Next, “CATAATCCATGGACCGGTTTTCCCGGTAATCCGTATTTGTT (site CGGAATCCTAA)”: 0.00373.
Next, “CATAGCACATGGACCGGTTTTCCCGGTAATCCGTATTTGTA (site CATAGCACTTA)”: 1.96; “CATATCCCATGGACCGGTTTTCCCGGTAATCCGTATTTGAC (site CATATCCCTGT)”: 0.73.
As for “CATCACACATGGACCGGTTTTCCCGGTAATCCGTATTTGGG (site CATCACACTCC)”, the “recombinant UMI read abundance (log10)” value is 0.0249.
Next, “CATCGCCCATGGACCGGTTTTCCCGGTAATCCGTATTTGGT (site CATCGCCCTAC)”: 0.296; “CATCTGACATGGACCGGTTTTCCCGGTAATCCGTATTTGCG (site CATCTGACTCG)”: 1.45.
Take “CATCTGTCATGGACCGGTTTTCCCGGTAATCCGTATTTGAC (site CATCTGTCTGT)”: the “recombinant UMI read abundance (log10)” value is 0.
As to “CATCTTGCATGGACCGGTTTTCCCGGTAATCCGTATTTGGT (site CATCTTGCTAC)”, the “recombinant UMI read abundance (log10)” value is 0.825.
Next, “CATGACTCATGGACCGGTTTTCCCGGTAATCCGTATTTGTT (site CATGACTCTAA)”: 2.08; “CATGCCTCATGGACCGGTTTTCCCGGTAATCCGTATTTGTG (site CATGCCTCTCA)”: 1.43.
Regarding “CATGGCTCATGGACCGGTTTTCCCGGTAATCCGTATTTGCG (site CATGGCTCTCG)”, the “recombinant UMI read abundance (log10)” value was 2.15.
The value for “CATGTAACATGGACCGGTTTTCCCGGTAATCCGTATTTGCT (site AATGTAACTAG)” was 0.624; that for “CATGTAACATGGACCGGTTTTCCCGGTAATCCGTATTTGCT (site CATGTAACTAG)” was 2.28.
Next, “CATGTAACATGGACCGGTTTTCCCGGTAATCCGTATTTGCT (site GATGTAACTAG)”: 0.28; “CATGTAACATGGACCGGTTTTCCCGGTAATCCGTATTTGCT (site TATGTAACTAG)”: 0.869; “CATGTGTCATGGACCGGTTTTCCCGGTAATCCGTATTTGAC (site AATGTGTCTGT)”: 0.
Next, “CATGTGTCATGGACCGGTTTTCCCGGTAATCCGTATTTGAC (site CATGTGTCTGT)”: 0.602.
As to “CATGTGTCATGGACCGGTTTTCCCGGTAATCCGTATTTGAC (site GATGTGTCTGT)”, the “recombinant UMI read abundance (log10)” value turned out to be 0.
The value for “CATGTGTCATGGACCGGTTTTCCCGGTAATCCGTATTTGAC (site TATGTGTCTGT)” was 0.00981; that for “CATGTTCCATGGACCGGTTTTCCCGGTAATCCGTATTTGTG (site CATGTTCCTCA)” was 0.0131.
Next, “CATTAGTCATGGACCGGTTTTCCCGGTAATCCGTATTTGTT (site CATTAGTCTAA)”: 2.03; “CATTCAACATGGACCGGTTTTCCCGGTAATCCGTATTTGCC (site CATTCAACTGG)”: 0.426; “CATTCCTCATGGACCGGTTTTCCCGGTAATCCGTATTTGCC (site CAATCCTCTGG)”: 1.59.
As for “CATTCCTCATGGACCGGTTTTCCCGGTAATCCGTATTTGCC (site CACTCCTCTGG)”, the “recombinant UMI read abundance (log10)” value turned out to be 1.09.
Take “CATTCCTCATGGACCGGTTTTCCCGGTAATCCGTATTTGCC (site CAGTCCTCTGG)”: the “recombinant UMI read abundance (log10)” value turned out to be 0.
Next, “CATTCCTCATGGACCGGTTTTCCCGGTAATCCGTATTTGCC (site CATTCCTCTGG)”: 1.47.
The value for “CATTCGACATGGACCGGTTTTCCCGGTAATCCGTATTTGCG (site CATTCGACTCG)” was 0.32; that for “CATTGACCATGGACCGGTTTTCCCGGTAATCCGTATTTGAG (site CATTGACCTCT)” was 0.0215; that for “CATTGCACATGGACCGGTTTTCCCGGTAATCCGTATTTGTA (site CATTGCACTTA)” was 0.726.
Next, “CATTGGACATGGACCGGTTTTCCCGGTAATCCGTATTTGCC (site CATTGGACTGG)”: 1.73; “CATTTATCATGGACCGGTTTTCCCGGTAATCCGTATTTGCA (site GCCCGTCCTAC)”: 0.031; “CATTTATCATGGACCGGTTTTCCCGGTAATCCGTATTTGGC (site CATTTATCTGC)”: 1.72.
On to “CATTTCCCATGGACCGGTTTTCCCGGTAATCCGTATTTGCT (site CAATTCCCTAG)”, for which the “recombinant UMI read abundance (log10)” value stood at 0.464.
Next, “CATTTCCCATGGACCGGTTTTCCCGGTAATCCGTATTTGCT (site CACTTCCCTAG)”: 0.691; “CATTTCCCATGGACCGGTTTTCCCGGTAATCCGTATTTGCT (site CAGTTCCCTAG)”: 0.0164; “CATTTCCCATGGACCGGTTTTCCCGGTAATCCGTATTTGCT (site CATTTCCCTAG)”: 0.788.
The value for “CATTTGGCATGGACCGGTTTTCCCGGTAATCCGTATTTGTG (site AATTTGGCTCA)” was 0.0432.
Next, “CATTTGGCATGGACCGGTTTTCCCGGTAATCCGTATTTGTG (site CATTTGGCTCA)”: 0.552; “CATTTGGCATGGACCGGTTTTCCCGGTAATCCGTATTTGTG (site GATTTGGCTCA)”: 0.00627; “CATTTGGCATGGACCGGTTTTCCCGGTAATCCGTATTTGTG (site TATTTGGCTCA)”: 0.106.
For “CCAAACACATGGACCGGTTTTCCCGGTAATCCGTATTTGAT (site CCAAACACTAT)”, the “recombinant UMI read abundance (log10)” value came out at 1.8.
